Measurements published in patent US20220354911A1, “TREATMENT OF TUMORS BY A COMBINATION OF AN ONCOLYTIC ADENOVIRUS, A CDK4/6 INHIBITOR AND A FURTHER THERAPEUTICALLY ACTIVE AGENT” (KLINIKUM RECHTS DER ISAR DER TECHNISCHEN UNIVERSITÄT MÜNCHEN, priority 2019, published 2022).

Tests used:
[1] = system: U87 cells, LN229 cells or T98G cells; experiment: SRB cell survival in glioblastoma cells, XVir-N-31, JQ1 and LEE011; assay type: cell-based; conditions: all three glioblastoma cell lines
Experimental: 2×10^4 cells (U87 cells, LN229 cells or T98G cells) were seeded in 12 well plates in DMEM medium and inhibitor treated at the next day. 48 hours post seeding the cells were infected with XVir-N-31. After 4 days the cells were fixated using 10% TCA. The plates were stained using a 0.1% SRB solution. The surplus was removed and the plates were washed with 1% acetic acid. After removing the acetic acid, the plates were air dried overnight. The SRB was solved in 1 ml of a 10 mM Tris Base solution and a 1:10 dilution was measured using a photometer at 560 nm.

dl703 = experiment: E1A-independent viral DNA replication of dl703 (fiber qPCR); assay type: cell-based, Mastadenovirus, Type C, Serotype 5; conditions: UMUC cells, 10 μM Lee, 50 MOI dl703, 48 hours post infection
Experimental: To investigate the differences in replication of dl703 (Mantwill et al. 2013, Journal of Translational Medicine, 11, 216) under different treatment conditions, DNA-replication analysis was performed. 100,000 UMUC cells were seeded in 6-well plates and grown in DMEM medium containing 10% FCS in 5% CO2 conditions at 37° C. 24 hours post seeding cells were treated for 24 hours with 10 μM Lee (Ribociclib), 1 μM CI-1040, 10 μM Nutlin-3a and 10 μM Roscovertine and again after infection adding an appropriate amount of inhibitors to the medium. Infection with 50 MOI dl703 (Mastadenovirus, Type C, Serotype 5 with a 3.2 kb sized deletion in E1 region) took place 24 hours post treatment. After 4 and 48 hours post infection DNA were isolated and qPCR was performed using specific primers for the viral fiber gene. Fiber fwd. 5′-[…]-3′ (SEQ ID NO: 17); Fiber rev. 5′-[…]-3′ (SEQ ID NO: 18).

Rb, phRB and E2F1 = experiment: Western blot of UMUC cells treated with cell cycle inhibitors; assay type: cell-based, human; conditions: 24 hours post-treatment, LEE-011 at 10 μM, MI-1040 at 1 μM
Experimental: Western Blot analysis of UMUC cells treated with indicated concentrations of CI-1040, Roscovitine, Nutlin-3a and LEE011 (Ribociclib). 1×10^6 cells were seeded in 10 cm dishes. 24 hours post-treatment proteins were isolated using 1% SDS buffer, to achieve the disruption of the nuclear membrane. All samples were drawn up several times into a syringe to disrupt the DNA and subsequently centrifuged at 30000 rpm at 4° C. for 30 minutes. The supernatant was transferred to a new reaction tube and directly used for further steps or stored at −80° C. To separate the proteins a sodium dodecyl sulfate polyacrylamide gel electrophoresis was performed. By means of electrophoresis for approximately two hours at 100V at 4° C., 40 μg of total proteins were loaded and probed against specific indicated antibodies.

LN229 cells = experiment: Western blot of XVir-N-31 infected LN229 cells, LEE011 and JQ1; assay type: cell-based
Experimental: 2.5×10^5 LN229 cells were seeded in 10 cm plates in DMEM medium. The following day the cells were treated with 500 nM LEE011 and 200 nM JQ1 or a combination of both. At the next morning the cells were infected with XVir-N-31 at 20 MOI. One hour after infection DMEM Medium containing the inhibitors was added on the cells. After each time point (24, 48, 72 hours) the cells were put on ice, washed twice with ice-cold PBS and 300 μl of SDS Protein Lysis Buffer was added. The cells were transferred to reaction tubes and the DNA sheared with a syringe and a needle and the supernatant transferred for further use after centrifugation. The protein concentration was measured with a BCA assay and samples with 4× Lämmli:DTT 6:1 and a concertation of 20 μg were produced and transferred to a 10% SDS gel. The gel electrophoresis started at 90V and was increased to 150V after the ladder started to separate. The proteins on the gel were blotted to a membrane for 2 hours at 100V and blocked in 5% milk in TBS-T for 1 hour at RT. After washing in TBS-T, the first antibody was added according to the manufacturer's information over night at 4° C. The used antibodies were directed to GAPDH, E1A, DBP, E2F1, Rb, pRb for all time points, and caspase 3 and the full length and cleaved version of PARP additionally for the 72 hours samples. The next day, the washing was repeated and the secondary antibody added for 1 hour at RT. Following the washing, ECL was used to image the chemiluminescence by the ChemiDoc™ MP Imaging System.

UMUC3 cells = experiment: Cell cycle analysis (flow cytometry) of UMUC3 cells; assay type: cell-based, human; conditions: UMUC3, 48 hours; Roscovitine 10 μM, CI-1040 1 μM, Nutlin-3a 10 μM, LEE011 10 μM; 10 MOI dl703
Experimental: FIG. 10 is a bar diagram showing cell cycle distribution in UMUC3 cells, measured 48 hours post treatment, whereby the concentrations of the […] inhibitors was as follows: Roscovitine: 10 μM, CI-1040: 1 μM, Nutlin-3a: 10 μM, and LEE011: 10 μM.
For cell cycle analysis cells were seeded in 6 well plates (2.5×10E4 c/well). 8 hours before infection with dl703, cells were treated with indicated concentration of cell cycle inhibitors. After infection with 10 MOI dl703 cells were again treated for 48 hours. Untreated cells and dl703 infected cells only, served as control. 48h post infection cells were harvest by trypsinization and fixed with 80% ethanol while vortexing. To investigate the cell cycle status, fixed cells were centrifuged 5 min at RT and 300 g and ethanol was aspirated. Cells were resuspended and washed with 1% BSA-PBS (Bovine Serum Albumin) and again centrifuged. Cells were stained with EDU and cell cycle analysis were performed using the Click-iT™ Plus EdU Flow Cytometry Assay Kits, Catalog nos. C10632 from Thermo Fischer. In addition, after 3× times washing with 1% BSA/PBS cells were stained with PI (Propidium Iodine, 50 μg/ml). Measurement was directly performed after staining with a FACScalibur Flow Cytometry System. Data was analyzed with FlowJo software.

[2] = LN229, with XVir-N-31, 48 hours post infection
[3] = LN229, with XVir-N-31, 72 hours post infection

Compound: CN(C)C(=O)c1cc2cnc(Nc3ccc(N4CCNCC4)cn3)nc2n1C1CCCC1 [LEE011]
- cell killing on addition of LEE011 to JQ1 and XVir-N-31 [1]: increased even further
- increase of viral DNA replication of dl703 (dl703): ~100 fold
- Rb, phRB and E2F1 expression (Rb, phRB and E2F1): induced inhibition
- viral proteins E1A and DBP (LN229 cells; LN229, XVir-N-31 MOI 20, 500 nM LEE011 or/and 200 nM JQ-1, 24 hours post infection): increased
- viral proteins E1A and DBP (LN229 cells; LN229, XVir-N-31 MOI 20, 500 nM LEE011 or/and 200 nM JQ-1, 48 hours post infection): increased
- viral proteins E1A and DBP (LN229 cells; LN229, XVir-N-31 MOI 20, 500 nM LEE011 or/and 200 nM JQ-1, 72 hours post infection): increased
- cellular proteins Rb and pRb (LN229 cells; LN229, with XVir-N-31, 24 hours post infection): remained inhibited
- E2F-1 (LN229 cells; [2]): stabilized
- cellular proteins Rb and pRb (LN229 cells; [2]): remained inhibited
- E2F1 (LN229 cells; [3]): enhanced
- cellular protein Rb (LN229 cells; [3]): decreased
- presence of cleaved PARP (LN229 cells; XVir-N-31 infected LN229 cells, 72 hours post infection): increased
- cell cycle distribution (UMUC3 cells): clear G1-arrest
